Data on two compounds can be found in patent US11591353B2 (Mindset Pharma Inc., priority 2020, dated 2023).

SMILES strings stand for the structures.

The target of assay [1] is human 5-HT2A receptor (Homo sapiens (Human), UniProt P28223). The experiment in a line: Radioligand binding assay on human 5-HT2A receptor ([3H]-ketanserin). As for the experimental part:
i. Prepare the assay buffer following the table below;
ii. Preparation of 8 doses of reference and test compounds starting from 10 mM stock solution as requested by 5-fold serial dilutions with 100%;
iii. […] a. Add 50 μl/well of 0.5% (v/v) PEI to UniFilter-96 GF/B plates. Seal the plates and incubate at 4° C. for 3 hrs; b. After incubation, wash the plates 3 times with ice-cold wash buffer (50 mM Tris, pH7.4);
iv. Preparation of assay plates: a. Dilute cell membrane with assay buffer and add 330 μl/well to 96 round deep well plates to reach a concentration of 20 μg/well; b. […] Dilute [3H]-ketanserin with assay buffer to 5 nM (5× final concentration) and add 110 μl/well to 96 round deep well plates.
v. Centrifuge the plate at 1000 rpm for 30 secs and then agitate at 600 rpm, R.T. for 5 min.
vii. Stop the incubation by vacuum filtration onto GF/B filter plates followed by 4 times washing with ice-cold wash buffer (50 mM Tris, pH7.4).
ix. […]
For reference and exemplary test compounds of the application, the results are expressed as % Inhibition, using the normalization equation: N=100−100×(U−C2)/(C1−C2), where U is the unknown value, C1 is the average of high controls, and C2 is the average of low controls. The IC50 is determined by fitting percentage of inhibition as a function of compound concentrations with Hill equation using XLfit.

The subject of assay [2] is male C57 BL6 mice. The experiment in a line: Mouse head-twitch response (HTR). Type of assay: in vivo. To be noted: head twitches over a 1 h period, FIG. 1 and FIG. 2. As for the experimental part:
FIG. 1 is a graph showing the effect of various doses of exemplary compound of Formula I, I-28, on head-twitch response (HTR) in male C57 BL6 mice. The mice were treated with compound I-28 ([…]) by PO route (N=6 mice/dose), and the total number of head twitches were recorded over a 1 h period. Data is expressed as mean±SEM. The induction of head twitches elicited by 5-HT2A receptor agonists is believed to represent a behavioural proxy of their psychedelic effects.
The mice were treated with compound MSP-1007 (0.03-10 mg/kg) by SC route (N=6 mice/dose), and the total number of head twitches were recorded over a 1 h period. Data is expressed as mean±SEM. […]
The effect of different doses of exemplary compound I-28 of Formula I and its active metabolite were evaluated on head-twitch response (HTR) as a behavior-based model of psychedelic activity.
Male, C57 BL/6 J mice (body weight range 20-30 g) were dosed with the appropriate dose of test article, and following a 1-minute pre-treatment time, placed in individual observation chambers. Animals were visually assessed for the incidence head twitches continuously over a 1 hr period. […] Each head twitch was individually counted by a trained observer, and the data expressed as the mean±SEM of 6-10 mice per group. […]

In the case of `[2H]C([2H])([2H])N(C([2H])([2H])[2H])C([2H])([2H])C([2H])([2H])c1c[nH]c2cccc(OC(=O)CCCCCCC/C=C\C/C=C\CCCCC)c12` [Compound I-28, 3-(2-(bis(methyl-d3)amino)ethyl-1,1,2,2-d4)-1H-indol-4-yl (9Z,12Z)-octadeca-9,12-dienoate], the 50% inhibitory concentration (IC50) (commonly the concentration that inhibits the measured activity by half) in assay [1] was determined as 516 nM. That is a sub-micromolar value.
For `[2H]C([2H])([2H])N(C([2H])([2H])[2H])C([2H])([2H])C([2H])([2H])c1c[nH]c2cccc(O)c12` [Compound I-45, 3-(2-(bis(methyl-d3)amino)ethyl-1,1,2,2-d4)-1H-indol-4-ol], the “efficacy to induce head twitch (in words)” value in assay [2] is given as “greater efficacy to induce head twitch than the exemplary prodrug I-28”.
